The test addresses T1, menin (Homo sapiens, UniProt O00255, T541A).
T1 construct: Menin (a.a. 1-610-6×his tag)
T1 sequence (O00255 with tags, fused parts or gaps T541A): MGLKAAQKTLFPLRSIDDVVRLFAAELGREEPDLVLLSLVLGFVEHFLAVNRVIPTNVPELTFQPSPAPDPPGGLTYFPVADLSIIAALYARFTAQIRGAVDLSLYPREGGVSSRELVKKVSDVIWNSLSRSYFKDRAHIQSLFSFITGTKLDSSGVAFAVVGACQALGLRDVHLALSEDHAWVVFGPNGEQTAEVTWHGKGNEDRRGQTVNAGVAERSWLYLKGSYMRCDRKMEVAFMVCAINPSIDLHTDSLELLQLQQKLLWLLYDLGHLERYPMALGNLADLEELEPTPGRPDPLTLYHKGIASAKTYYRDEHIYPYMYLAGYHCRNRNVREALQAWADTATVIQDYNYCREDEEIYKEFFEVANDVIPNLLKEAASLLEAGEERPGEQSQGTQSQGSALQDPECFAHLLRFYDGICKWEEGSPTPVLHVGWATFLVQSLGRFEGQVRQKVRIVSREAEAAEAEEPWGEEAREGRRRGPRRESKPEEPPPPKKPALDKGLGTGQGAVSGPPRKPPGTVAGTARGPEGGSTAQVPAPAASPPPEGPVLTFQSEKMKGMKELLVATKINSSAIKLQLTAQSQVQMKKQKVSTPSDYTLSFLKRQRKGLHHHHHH
Put plainly: Menin/MLL homogenous time-resolved fluorescence (HTRF) assay. The class given is binding. The protocol: 2) Menin/MLL Homogenous Time-Resolved Fluorescence (HTRF) Assay
To an untreated, white 384-well microtiter plate was added 40 nL 200× test compound in DMSO and 4 μL 2× terbium chelate-labeled menin (vide infra for preparation) in assay buffer (40 mM Tris HCl, pH 7.5, 50 mM NaCl, 1 mM DTT and 0.05% Pluronic F-127). After incubation of test compound and terbium chelate-labeled menin for 5 min at ambient temperature, 4 μL 2× FITC-MBM1 peptide (FITC-β-alanine-[…]-NH2 (SEQ ID NO: 23)) in assay buffer was added, the microtiter plate centrifuged at 1000 rpm for 1 min and the assay mixtures incubated for 15 min at ambient temperature. The relative amount of menin.FITC-MBM1 complex present in an assay mixture is determined by measuring the homogenous time-resolved fluorescence (HTRF) of the terbium/FITC donor/acceptor fluorphore pair using a BMG Pherastar plate reader (ex. 337 nm/terbium em. 490 nm/FITC em. 520 nm) at ambient temperature. The degree of fluorescence resonance energy transfer (the HTRF value) is expressed as the ratio of the fluorescence emission intensities of the FITC and terbium fluorophores (Fern 520 nm/Fem 490 nm). The final concentrations of reagents in the binding assay are […] terbium chelate-labeled menin (location 2), 75 nM FITC-MBM1 peptide and 0.5% DMSO in assay buffer. Dose-response titrations of test compounds are conducted using an 11 point, three-fold serial dilution scheme, starting typically at 25 μM (location 1) or starting typically at 10 μM (location 2).
Compound potencies were determined by first calculating % inhibition at each compound concentration according to equation 1: % inhibition=((HC−LC)−(HTRF^compound−LC))/(HC−LC))*100 (Eqn 1)
Where LC and HC are the HTRF values of the assay in the presence or absence of a saturating concentration of a compound that competes with FITC-MBM1 for binding to menin, and HTRF^compound is the measured HTRF value in the presence of the test compound. FTC and LC HTRF values represent an average of at least 16 replicates per plate.
Where Bottom and Top are the lower and upper asymptotes of the dose-response curve, respectively, IC50 is the concentration of compound that yields 50% inhibition of signal and h is the Hill coefficient.
Preparation of Terbium cryptate labeling of Menin: Menin (a.a. 1-610-6×his tag (“6×his” disclosed as SEQ ID NO: 3)) was labeled with terbium cryptate as follows. 2 mg of Menin was buffer exchanged into 1× phosphate buffered saline. 16 uM Menin was incubated with 4-fold molar excess NHS-terbium cryptate (Cisbio Bioassays, Bedford, Mass.) for 2 hours at room temperature. The labeled protein was purified away from free label by running the reaction over a Superdex 200 Increase 10/300 GL column at 0.75 ml/min. Peak fractions were collected, aliquoted and frozen at −80° C.

Where [1] appears, read: location 2, read-out: (2) location 2 Menin HTRF assay (IC50 (nM)).
The mark [2] stands for this setting: location 1, read-out: (2) location 1 Menin HTRF assay (IC50 (nM)).

Usually IC50 stands for the concentration that inhibits the measured activity by half.

Read-outs that look alike come from different tables or passages of the source. A value given as a limit tells only on which side of the number the result lay.

As for `O=c1[nH]c2ccc(N[C@H]3CCC4(C3)CN(c3ncnc5sc(CC(F)(F)F)cc35)C4)cc2[nH]1` (single isomer, unassigned) [Compound 300], the concentration for half-maximal inhibition (IC50) under setting [1] amounted to 128 nM. As for `FC(F)(F)Cc1cc2c(N3CC4(CC[C@@H](Nc5ccc(-c6cn[nH]c6)cc5)C4)C3)ncnc2s1` (single isomer, unassigned) [Compound 303], the IC50 under setting [1] was determined as 521 nM. With `FC(F)(F)Cc1cc2c(N3CCC4(CC(Nc5ccc6cc[nH]c6c5)C4)C3)ncnc2s1` (single isomer, unassigned) [Compound 312], under setting [1], the half-maximal inhibitory concentration (IC50) amounted to 136 nM. Same read-out and setting: next, `FC(F)(F)Cc1cc2c(N3CCC4(CC(Nc5ccc6cc[nH]c6c5)C4)C3)ncnc2s1` (single isomer, unassigned) [Compound 313]: 55.2 nM.

As for `O=c1[nH]c2ccc(NC3CC4(CCN(c5ncnc6sc(CC(F)(F)F)cc56)C4)C3)cc2o1` (single isomer, unassigned) [Compound 324], under setting [1], the IC50 came out at 85.9 nM.

As for `FC(F)(F)Cc1cc2c(N3CCC4(CC(Nc5ccc(-c6cn[nH]c6)cc5)C4)C3)ncnc2s1` (single isomer, unassigned) [Compound 328], the IC50 under setting [1] is 206 nM. The same measure, in the same setting: as for `CC(=O)Nc1ccc(NC2CC3(CCN(c4ncnc5sc(CC(F)(F)F)cc45)C3)C2)cc1` (single isomer, unassigned) [Compound 332], the figure is 330 nM. Still for that read-out and setting: as for `CN1CCN(C(=O)c2ccc(NC3CC4(CCN(c5ncnc6sc(CC(F)(F)F)cc56)C4)C3)cc2)CC1` (single isomer, unassigned) [Compound 337], the figure is 2300 nM.

For the compound `CN1CCN(C(=O)c2ccc(NC3CC4(CCN(c5ncnc6sc(CC(F)(F)F)cc56)C4)C3)cc2)CC1` (single isomer, unassigned) [Compound 338], the IC50 under setting [1] is 89.5 nM. On the same count and under the same terms, next, `Nc1nc(N2CCC3(CC(Nc4ccc5[nH]c(=O)[nH]c5c4)C3)C2)c2cc(CC(F)(F)F)sc2n1` (single isomer, unassigned) [Compound 383]: 70.8 nM. On the same count and under the same terms, as for `N#CCc1ccc(NC2CCC3(C2)CN(c2nc(N)nc4sc(CC(F)(F)F)cc24)C3)cc1` (single isomer, unassigned) [Compound 388], the figure is 217 nM; as for `N#CCc1ccc(NC2CCC3(C2)CN(c2nc(N)nc4sc(CC(F)(F)F)cc24)C3)cc1` (single isomer, unassigned) [Compound 389], 96 nM. Same read-out and setting: as for `CNc1nc(N2CCC3(CC(Nc4ccc(CC#N)cc4)C3)C2)c2cc(CC(F)(F)F)sc2n1` (single isomer, unassigned) [Compound 391], the figure is 163 nM; as for `CNc1nc(N2CCC3(CC(Nc4ccc(CC#N)cc4)C3)C2)c2cc(CC(F)(F)F)sc2n1` (single isomer, unassigned) [Compound 392], 16.8 nM. With `CNc1nc(N2CCC3(CC(Nc4ccc5[nH]c(=O)[nH]c5c4)C3)C2)c2cc(CC(F)(F)F)sc2n1` (single isomer, unassigned) [Compound 395], the IC50 under setting [1] came to 113 nM. Still for that read-out and setting: as for `COC[C@@H]1CN(C(=O)c2ccc(NC3CC4(CCN(c5ncnc6sc(CC(F)(F)F)cc56)C4)C3)cc2)CCO1` (single isomer, unassigned) [Compound 409], the figure is 1100 nM.

Take `O=C(c1ccc(NC2CC3(CCN(c4ncnc5sc(CC(F)(F)F)cc45)C3)C2)cc1)N1CC2(COC2)C1` (single isomer, unassigned) [Compound 414]: the IC50 under setting [1] stood at 100 nM. On the same count and under the same terms, next, `FC(F)(F)Cc1cc2c(N3CC4(CC[C@@H](NC5(c6ccccc6)CC5)C4)C3)ncnc2s1` (stereo in doubt) [Compound 112]: 313 nM; `FC(F)(F)Cc1cc2c(N3CC4(CC[C@H](NC5(c6ccccc6)CC5)C4)C3)ncnc2s1` (stereo in doubt) [Compound 113]: 164 nM. Still for that read-out and setting: as for `COc1nc(N2CC3(CC[C@@H](NCc4cccc(-c5cc[nH]n5)c4)C3)C2)c2cc(CC(F)(F)F)sc2n1` (stereo in doubt) [Compound 115], the figure is 160 nM. Turning to `N#CCc1ccc(N[C@@H]2CC[C@]3(CCN(c4ncnc5sc(CC(F)(F)F)cc45)C3)C2)cc1` (stereo in doubt) [Compound 146], the IC50 under setting [1] came out at 23.7 nM. As for `N#CCc1cccc(C(=O)NC2CC3(CCN(c4ncnc5sc(CC(F)(F)F)cc45)C3)C2)c1` (stereo not drawn) [Compound 8], the 50% inhibitory concentration (IC50) under setting [2] is 1250 nM and the IC50 under setting [1] turned out to be 1010 nM. On to `CC(C)(C#N)c1cccc(C(=O)NC2CC3(CCN(c4ncnc5sc(CC(F)(F)F)cc45)C3)C2)c1` (stereo not drawn) [Compound 9], for which the IC50 runs as follows: under setting [2], 3810 nM; under setting [1], 1220 nM. For `N#CCc1cccc(C(=O)NC2CCC3(C2)CN(c2ncnc4sc(CC(F)(F)F)cc24)C3)c1` (stereo not drawn) [Compound 18], in that order: 3840 nM and 1620 nM. Taken in the same sequence, the figures for `CC(C)(C#N)c1cccc(C(=O)NC2CCC3(C2)CN(c2ncnc4sc(CC(F)(F)F)cc24)C3)c1` (stereo not drawn) [Compound 19] were 3630 nM and 3560 nM.

`N#CCc1ccc(C(=O)NC2CCC3(C2)CN(c2ncnc4sc(CC(F)(F)F)cc24)C3)cc1` (stereo not drawn) [Compound 20]: the 50% inhibitory concentration (IC50) was 2020 nM under setting [2] and 2790 nM under setting [1]. For `O=S(=O)(NC1CC2(CCN(c3ncnc4sc(CC(F)(F)F)cc34)C2)C1)c1ccccc1` (stereo not drawn) [Compound 24], the 50% inhibitory concentration (IC50) under setting [1] was 419 nM. Still for that read-out and setting: as for `O=C(NC1CCC2(C1)CN(c1ncnc3sc(CC(F)(F)F)cc13)C2)c1cccc(-c2cc[nH]n2)c1` (stereo not drawn) [Compound 30], the figure is 3890 nM; as for `O=C(NC1CC2(CCN(c3ncnc4sc(CC(F)(F)F)cc34)C2)C1)c1ccccc1` (stereo not drawn) [Compound 36], 7520 nM; as for `O=S(=O)(NC1CCC2(CCN(c3ncnc4sc(CC(F)(F)F)cc34)C2)C1)c1ccccc1` (stereo not drawn) [Compound 39], 1440 nM. Take `Cn1cc(NC2CCC3(C2)CN(c2ncnc4sc(CC(F)(F)F)cc24)C3)cn1` (stereo not drawn) [Compound 43]: the IC50 under setting [1] was 1750 nM. On to `O=C1CN(C(=O)c2ccc(NC3CC4(CCN(c5ncnc6sc(CC(F)(F)F)cc56)C4)C3)cc2)CCN1` (stereo not drawn) [Compound 104], for which, under setting [1], the IC50 turned out to be 16.6 nM.

As to `N#CCc1cccc(NC2CCC3(C2)CN(c2ncnc4sc(CC(F)(F)F)cc24)C3)c1` (stereo not drawn) [Compound 114], the half-inhibitory concentration (IC50) under setting [1] was found to be 157 nM. As for `COc1nc(N2CC3(CCC(NCc4ccc5[nH]c(=O)[nH]c5c4)C3)C2)c2cc(CC(F)(F)F)sc2n1` (stereo not drawn) [Compound 117], the IC50 under setting [1] was 111 nM. On the same count and under the same terms, as for `CNC(=O)c1ccc(NC2CCC3(C2)CN(c2nc(NC)nc4sc(CC(F)(F)F)cc24)C3)cc1` (stereo not drawn) [Compound 123], the figure is 137 nM; as for `N#CCc1cccc(S(=O)(=O)NC2CCC3(CCN(c4ncnc5sc(CC(F)(F)F)cc45)C3)C2)c1` (stereo not drawn) [Compound 124], 2530 nM.

Consider `N#CCc1ccc(S(=O)(=O)NC2CCC3(CCN(c4ncnc5sc(CC(F)(F)F)cc45)C3)C2)cc1` (stereo not drawn) [Compound 125], for which the IC50 under setting [1] is 5940 nM. With `N#CCc1ccc(C(=O)NC2CCC3(CCN(c4ncnc5sc(CC(F)(F)F)cc45)C3)C2)cc1` (stereo not drawn) [Compound 126], the IC50 under setting [1] was > 10000 nM. Same read-out and setting: next, `N#CCc1cccc(C(=O)NC2CCC3(CCN(c4ncnc5sc(CC(F)(F)F)cc45)C3)C2)c1` (stereo not drawn) [Compound 127]: > 10000 nM.

`O=C(NC1CCC2(CCN(c3ncnc4sc(CC(F)(F)F)cc34)C2)C1)c1ccccc1` (stereo not drawn) [Compound 128]: under setting [1], the IC50 was > 10000 nM.
